In PubChem BioAssay AID330 (DTP/NCI, 2004):
Several values for one entry are separate records, joined by “and”; a condition that tells them apart may be missing. Identical values can stand only once. Toxic doses and inconclusive results are not listed.

Tested on: P388 leukemia ip, CD2F1 mice, survival T/C
Assay: NCI In Vivo Anticancer Drug Screen. Data for tumor model P388 Leukemia (intraperitoneal) in CD2F1 (CDF1) mice
Conditions: endpoint: median survival time, higher = longer survival
How it was run: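 Mice carrying the transplanted tumor received test compound or vehicle. Survival was recorded in each group, and the value is the treated-group measurement divided by that of the vehicle-treated control group.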

[1] = dose: 50.0 mg/kg/injection, schedule: Q01DX009 (ip), vehicle: saline with Tween-80
[2] = dose: 100.0 mg/kg/injection, schedule: Q01DX009 (ip), vehicle: saline with Tween-80
[3] = dose: 200.0 mg/kg/injection, schedule: Q01DX009 (ip), vehicle: saline with Tween-80
[4] = dose: 50.0 mg/kg/injection, schedule: Q01DX005 (ip), vehicle: saline with Tween-80
[5] = dose: 100.0 mg/kg/injection, schedule: Q01DX005 (ip), vehicle: saline with Tween-80
[6] = dose: 60.0 mg/kg/injection, schedule: Q01DX005 (ip), vehicle: saline with Tween-80
[7] = dose: 120.0 mg/kg/injection, schedule: Q01DX005 (ip), vehicle: saline with Tween-80
[8] = dose: 25.0 mg/kg/injection, schedule: Q01DX009 (ip), vehicle: saline with Tween-80

With `[CH3][Sn]([CH3])([S]CCS(=O)(=O)O)[S]CCS(=O)(=O)O` the T/C (dose: 15.0 mg/kg/injection, schedule: Q01DX005 (ip), vehicle: saline) was 120 % of control, the T/C (dose: 30.0 mg/kg/injection, schedule: Q01DX005 (ip), vehicle: saline) was 98 % of control and the T/C (dose: 60.0 mg/kg/injection, schedule: Q01DX005 (ip), vehicle: saline) was 107 % of control. For the same compound, the T/C (dose: 120.0 mg/kg/injection, schedule: Q01DX005 (ip), vehicle: saline) was 121 % of control.
For `C[N+]1(C)CCCC(O)(C(=O)c2ccccc2)C1` (stereo not given), the T/C (dose: 100.0 mg/kg/injection, schedule: Q01DX001 (ip), vehicle: saline) was 98 % of control and the T/C (dose: 200.0 mg/kg/injection, schedule: Q01DX001 (ip), vehicle: saline) was 100 % of control.
In the case of `COc1ccc(CCNc2ccc(OC)c(OC)c2)cc1OC`, the T/C (dose: 12.5 mg/kg/injection, schedule: Q01DX009 (ip), vehicle: water) was 91 % of control, the T/C (dose: 25.0 mg/kg/injection, schedule: Q01DX009 (ip), vehicle: water) was 98 % of control and the T/C (dose: 50.0 mg/kg/injection, schedule: Q01DX009 (ip), vehicle: water) was 100 % of control. The T/C (dose: 100.0 mg/kg/injection, schedule: Q01DX009 (ip), vehicle: water) was 95 % of control and the T/C (dose: 200.0 mg/kg/injection, schedule: Q01DX009 (ip), vehicle: water) was 90 % of control.
In the case of `CN1N=Cc2sc(Br)c(Br)c2B1O`, the T/C [1] was 94 % of control, the T/C [2] was 101 % of control and the T/C [3] was 94 % of control.
`CC(C)C(C/C(=N\Nc1ccc([N+](=O)[O-])cc1[N+](=O)[O-])C1CC1)C(=O)O` (stereo not given) was tested, and the T/C (dose: 25.0 mg/kg/injection, schedule: Q01DX005 (ip), vehicle: saline with Tween-80) was 105 % of control, the T/C [4] was 96 % of control and the T/C [5] was 89 % of control.
With `Cc1ccc(C(=O)CC2(O)C(=O)Nc3c(Cl)cc(Cl)cc32)cc1` (stereo not given) the T/C [6] was 103 % of control, the T/C [7] was 108 % of control and the T/C (dose: 240.0 mg/kg/injection, schedule: Q01DX005 (ip), vehicle: saline with Tween-80) was 100 % of control.
For `Cc1c2cc[n+](Cc3ccc(I)cc3)cc2c(C)c2c1[nH]c1ccccc12`, the T/C (dose: 11.75 mg/kg/injection, schedule: Q04DX002 (ip), vehicle: saline with Tween-80) was 112 % of control, the T/C (dose: 23.5 mg/kg/injection, schedule: Q04DX002 (ip), vehicle: saline with Tween-80) was 116 % of control and the T/C (dose: 47.0 mg/kg/injection, schedule: Q04DX002 (ip), vehicle: saline with Tween-80) was 124 % of control.
With `CC1(C)COCN1COC1CCCCC1` the T/C (dose: 25.0 mg/kg/injection, schedule: Q01DX009 (ip), vehicle: saline) was 120 % of control.
For `COC1=C(OC)C(=O)C2=C(OCCO2)C1=O`, the T/C (dose: 25.0 mg/kg/injection, schedule: Q01DX001 (ip), vehicle: saline with Tween-80) was 109 % of control, the T/C (dose: 50.0 mg/kg/injection, schedule: Q01DX001 (ip), vehicle: saline with Tween-80) was 106 % of control and the T/C (dose: 100.0 mg/kg/injection, schedule: Q01DX001 (ip), vehicle: saline with Tween-80) was 107 % of control.
For `O=C1OC(c2ccccc2)(c2ccccc2)CC1CC(O)(c1ccccc1)c1ccccc1` (stereo not given), the T/C [4] was 98 % of control and the T/C [5] was 90 % of control.
With `O=C(Nc1ccc(Cl)cc1)Nc1nccs1` the T/C (dose: 12.5 mg/kg/injection, schedule: Q01DX009 (ip), vehicle: distilled water + Tween-80) was 100 % of control, the T/C (dose: 25.0 mg/kg/injection, schedule: Q01DX009 (ip), vehicle: distilled water + Tween-80) was 109 % of control and the T/C (dose: 50.0 mg/kg/injection, schedule: Q01DX009 (ip), vehicle: distilled water + Tween-80) was 111 % of control. The T/C (dose: 100.0 mg/kg/injection, schedule: Q01DX009 (ip), vehicle: distilled water + Tween-80) was 118 % of control.
In the case of `CSCc1cccc(Cl)c1N`, the T/C [8] was 102 % of control, the T/C [1] was 106 % of control and the T/C [2] was 106 % of control.
`COc1ccccc1N1C(=S)N(c2cccc(Cl)c2Cl)C(=O)C(N=Nc2ccc(Br)cc2)C1O` (stereo not given) was tested, and the T/C (dose: 100.0 mg/kg/injection, schedule: Q01DX001 (ip), vehicle: Klucel (hydroxypropylcellulose) (HPC)) was 100 % of control, the T/C (dose: 200.0 mg/kg/injection, schedule: Q01DX001 (ip), vehicle: Klucel (hydroxypropylcellulose) (HPC)) was 99 % of control and the T/C (dose: 400.0 mg/kg/injection, schedule: Q01DX001 (ip), vehicle: Klucel (hydroxypropylcellulose) (HPC)) was 96 % of control.
With `COc1c(Br)c2c(c(OC)c1OC)-c1ccc(OC)c(=O)cc1C(NC(C)=O)CC2` (stereo not given) the T/C (dose: 1.56 mg/kg/injection, schedule: Q01DX009 (ip), vehicle: Klucel (hydroxypropylcellulose) (HPC)) was 165 % of control and the T/C (dose: 3.12 mg/kg/injection, schedule: Q01DX009 (ip), vehicle: Klucel (hydroxypropylcellulose) (HPC)) was 101 % of control and 96 % of control.
`CCCCCCCCCCCC(CCCC)CCCCCCCCCC` (stereo not given) was tested, and the T/C (dose: 50.0 mg/kg/injection, schedule: Q01DX001 (ip), vehicle: saline sonified) was 100 % of control, the T/C (dose: 100.0 mg/kg/injection, schedule: Q01DX001 (ip), vehicle: saline sonified) was 104 % of control and the T/C (dose: 200.0 mg/kg/injection, schedule: Q01DX001 (ip), vehicle: saline sonified) was 100 % of control.
`Cc1cc(N(c2ccc([N+](=O)[O-])cc2)S(C)(=O)=O)c(C)cc1C=O` was tested, and the T/C [8] was 101 % of control, the T/C [1] was 99 % of control and the T/C [2] was 98 % of control.
For `COc1ccc(C(C)N(C)C)cc1` (stereo not given), the T/C (dose: 50.0 mg/kg/injection, schedule: Q01DX001 (ip), vehicle: other) was 101 % of control, the T/C (dose: 100.0 mg/kg/injection, schedule: Q01DX001 (ip), vehicle: other) was 99 % of control and 103 % of control and the T/C (dose: 200.0 mg/kg/injection, schedule: Q01DX001 (ip), vehicle: other) was 98 % of control.
In the case of `CCN(CC)c1ccc2nc3ccc(N=Nc4c(O)ccc5ccccc45)cc3[n+](-c3ccccc3)c2c1`, the T/C (dose: 0.75 mg/kg/injection, schedule: Q01DX005 (ip), vehicle: saline with Tween-80) was 115 % of control, the T/C (dose: 1.5 mg/kg/injection, schedule: Q01DX005 (ip), vehicle: saline with Tween-80) was 120 % of control and the T/C (dose: 3.0 mg/kg/injection, schedule: Q01DX005 (ip), vehicle: saline with Tween-80) was 120 % of control. For the same compound, the T/C (dose: 6.0 mg/kg/injection, schedule: Q01DX005 (ip), vehicle: saline with Tween-80) was 90 % of control.
For `Cc1ccc(S(=O)(=O)NNC(=O)c2nc3ccccc3c(=O)[nH]2)cc1`, the T/C [6] was 100 % of control and the T/C [7] was 92 % of control.
In the case of `CC(C)C(=O)C(O)C(C)C` (stereo not given), the T/C (dose: 50.0 mg/kg/injection, schedule: Q01DX005 (ip), vehicle: saline) was 92 % of control, the T/C (dose: 100.0 mg/kg/injection, schedule: Q01DX005 (ip), vehicle: saline) was 103 % of control and the T/C (dose: 200.0 mg/kg/injection, schedule: Q01DX005 (ip), vehicle: saline) was 100 % of control.
For `C[Si](C)(C)C1OC1[Si](C)(C)C` (stereo not given), the T/C (dose: 50.0 mg/kg/injection, schedule: Q04DX002 (ip), vehicle: other) was 103 % of control, the T/C (dose: 100.0 mg/kg/injection, schedule: Q04DX002 (ip), vehicle: other) was 105 % of control and the T/C (dose: 200.0 mg/kg/injection, schedule: Q04DX002 (ip), vehicle: other) was 108 % of control.
With `N=c1c(C(=O)OCc2ccccc2)ncc(CCl)n1O` the T/C [8] was 114 % of control, the T/C [1] was 124 % of control and the T/C [2] was 123 % of control. For the same compound, the T/C [3] was 116 % of control.
In the case of `CCOc1ccccc1NC(=S)Nc1ccccc1C(F)(F)F`, the T/C (dose: 50.0 mg/kg/injection, schedule: Q01DX009 (ip), vehicle: Klucel (hydroxypropylcellulose) (HPC)) was 109 % of control, the T/C (dose: 100.0 mg/kg/injection, schedule: Q01DX009 (ip), vehicle: Klucel (hydroxypropylcellulose) (HPC)) was 100 % of control and the T/C (dose: 200.0 mg/kg/injection, schedule: Q01DX009 (ip), vehicle: Klucel (hydroxypropylcellulose) (HPC)) was 100 % of control.
In the case of `CC1(C)C(=O)C(C)(C)C1O`, the T/C (dose: 50.0 mg/kg/injection, schedule: Q01DX009 (ip), vehicle: saline) was 98 % of control, the T/C (dose: 100.0 mg/kg/injection, schedule: Q01DX009 (ip), vehicle: saline) was 95 % of control and the T/C (dose: 200.0 mg/kg/injection, schedule: Q01DX009 (ip), vehicle: saline) was 98 % of control.
In the case of `CC(SC(C)C(=O)N/N=C/c1ccc(C#N)cc1)C(=O)N/N=C\c1ccc(C#N)cc1` (stereo not given), the T/C (dose: 100.0 mg/kg/injection, schedule: Q01DX009 (ip), vehicle: suspension in saline) was 97 % of control, the T/C (dose: 200.0 mg/kg/injection, schedule: Q01DX009 (ip), vehicle: suspension in saline) was 101 % of control and the T/C (dose: 400.0 mg/kg/injection, schedule: Q01DX009 (ip), vehicle: suspension in saline) was 90 % of control.
